Laboratory results: US20090269734A1, “METHOD FOR DETERMINATION OF RECOGNITION SPECIFICITY OF VIRUS FOR RECEPTOR SUGAR CHAIN” (priority 2005, published 2009)

Assays:
[1] = system: human A virus: A/Memphis/1/71/(H3N2); assay type: binding, human influenza A virus
[2] = system: avian A virus: A/duck/Hong Kong/24/76 (H3N2); assay type: binding, avian influenza A virus
human B virus: B/Lee/40 = assay type: binding, human influenza B virus

Substance: Poly (Neu5Ac α2-6Gal β1-4GlcNAc β-pAP/α-PGA)
- recognition of the polymer with sialo-oligosaccharide by the human influenza A virus (absorbency at 492 nm) [1]: strongly recognizes
- recognition of the polymer with sialo-oligosaccharide by the avian influenza A virus (absorbency at 492 nm) [2]: weak
- recognition of the polymer with sialo-oligosaccharide by the human influenza B virus (absorbency at 492 nm) (human B virus: B/Lee/40): strongly recognizes

Substance: Poly (Neu5Ac α2-3Gal β1-4GlcNAc β-pAP/α-PGA)
- recognition of the polymer with sialo-oligosaccharide by the human influenza A virus (absorbency at 492 nm) [1]: weak
- recognition of the polymer with sialo-oligosaccharide by the avian influenza A virus (absorbency at 492 nm) [2]: strongly recognizes
- recognition of the polymer with sialo-oligosaccharide by the human influenza B virus (absorbency at 492 nm) (human B virus: B/Lee/40): weak
